Assay results: patent publication US9428508B2, “2,4-diamino-6,7-dihydro-5H-pyrrolo[2,3]pyrimidine derivatives as FAK/Pyk2 inhibitors” (Centaurus BioPharma Co., Ltd., priority 2011, dated 2016)

Legend:
[1] = molecular target: PYK2 (Homo sapiens (Human), UniProt Q14289); assay: Biochemical assay for PYK2 activity (LANCE TR-FRET, ULight-poly Glu,Ala,Tyr substrate); details: GST-tagged PYK2, 40 min reaction
Outline: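 GST-tagged human PYK2 (2 nM working stock) with ULight-poly Glu,Ala,Tyr (1:1:1) peptide (666 nM working stock) and ATP (46.6 μM working stock) in 40 mM Tris pH 7.5, MgCl2, 1 mM DTT, 1 mM CHAPS; 40 min reaction, EDTA quench. Phosphotyrosine read by LANCE Eu-anti-phosphotyrosine (PY20) TR-FRET after 60 min; 12-point 3-fold compound dilutions.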

[2] = molecular target: FAK (Homo sapiens (Human), UniProt Q05397); assay: Biochemical assay for FAK activity (LANCE TR-FRET, ULight-poly Glu,Ala,Tyr substrate); details: GST-tagged FAK, 120 min reaction
FAK, sequence (Q05397 whole entry): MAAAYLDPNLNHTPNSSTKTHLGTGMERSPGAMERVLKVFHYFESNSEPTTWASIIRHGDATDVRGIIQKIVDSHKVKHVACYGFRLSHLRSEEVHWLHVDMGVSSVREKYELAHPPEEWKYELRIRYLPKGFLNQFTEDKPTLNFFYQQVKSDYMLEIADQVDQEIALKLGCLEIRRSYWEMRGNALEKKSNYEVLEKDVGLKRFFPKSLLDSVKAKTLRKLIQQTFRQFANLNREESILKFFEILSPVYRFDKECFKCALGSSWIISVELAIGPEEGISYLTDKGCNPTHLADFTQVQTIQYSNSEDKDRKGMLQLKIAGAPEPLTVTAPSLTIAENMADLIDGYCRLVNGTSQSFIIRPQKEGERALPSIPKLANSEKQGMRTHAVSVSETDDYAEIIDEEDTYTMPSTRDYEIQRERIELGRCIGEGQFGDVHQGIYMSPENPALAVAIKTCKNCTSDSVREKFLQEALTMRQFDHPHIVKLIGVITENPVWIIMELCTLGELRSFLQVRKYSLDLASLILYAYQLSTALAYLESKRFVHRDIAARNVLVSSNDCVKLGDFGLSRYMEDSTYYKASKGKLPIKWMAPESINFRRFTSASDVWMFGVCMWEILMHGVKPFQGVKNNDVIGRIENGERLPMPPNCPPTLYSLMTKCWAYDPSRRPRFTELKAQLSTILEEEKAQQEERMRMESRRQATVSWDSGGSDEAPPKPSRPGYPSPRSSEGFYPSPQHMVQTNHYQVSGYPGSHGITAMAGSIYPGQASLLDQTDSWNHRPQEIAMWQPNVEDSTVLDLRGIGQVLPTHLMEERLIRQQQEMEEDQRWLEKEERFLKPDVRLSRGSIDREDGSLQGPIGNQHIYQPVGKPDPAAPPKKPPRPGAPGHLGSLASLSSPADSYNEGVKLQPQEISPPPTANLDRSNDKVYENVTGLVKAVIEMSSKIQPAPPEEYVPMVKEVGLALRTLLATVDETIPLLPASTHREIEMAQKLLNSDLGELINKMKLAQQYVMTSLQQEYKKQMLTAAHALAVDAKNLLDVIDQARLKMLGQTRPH
Outline: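 GST-tagged FAK (2.5 nM working stock) with ULight-poly Glu,Ala,Tyr (666 nM stock) and ATP (33.3 μM stock) in Tris pH 7.5/MgCl2/DTT/CHAPS buffer with BSA, 120 min; EDTA-quenched. Phosphorylation read by TR-FRET with Eu-anti-phosphotyrosine (PY20) antibody after 60 min. Compounds tested as 12-point 3-fold dilutions.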

PYK2, sequence (Q14289 whole entry): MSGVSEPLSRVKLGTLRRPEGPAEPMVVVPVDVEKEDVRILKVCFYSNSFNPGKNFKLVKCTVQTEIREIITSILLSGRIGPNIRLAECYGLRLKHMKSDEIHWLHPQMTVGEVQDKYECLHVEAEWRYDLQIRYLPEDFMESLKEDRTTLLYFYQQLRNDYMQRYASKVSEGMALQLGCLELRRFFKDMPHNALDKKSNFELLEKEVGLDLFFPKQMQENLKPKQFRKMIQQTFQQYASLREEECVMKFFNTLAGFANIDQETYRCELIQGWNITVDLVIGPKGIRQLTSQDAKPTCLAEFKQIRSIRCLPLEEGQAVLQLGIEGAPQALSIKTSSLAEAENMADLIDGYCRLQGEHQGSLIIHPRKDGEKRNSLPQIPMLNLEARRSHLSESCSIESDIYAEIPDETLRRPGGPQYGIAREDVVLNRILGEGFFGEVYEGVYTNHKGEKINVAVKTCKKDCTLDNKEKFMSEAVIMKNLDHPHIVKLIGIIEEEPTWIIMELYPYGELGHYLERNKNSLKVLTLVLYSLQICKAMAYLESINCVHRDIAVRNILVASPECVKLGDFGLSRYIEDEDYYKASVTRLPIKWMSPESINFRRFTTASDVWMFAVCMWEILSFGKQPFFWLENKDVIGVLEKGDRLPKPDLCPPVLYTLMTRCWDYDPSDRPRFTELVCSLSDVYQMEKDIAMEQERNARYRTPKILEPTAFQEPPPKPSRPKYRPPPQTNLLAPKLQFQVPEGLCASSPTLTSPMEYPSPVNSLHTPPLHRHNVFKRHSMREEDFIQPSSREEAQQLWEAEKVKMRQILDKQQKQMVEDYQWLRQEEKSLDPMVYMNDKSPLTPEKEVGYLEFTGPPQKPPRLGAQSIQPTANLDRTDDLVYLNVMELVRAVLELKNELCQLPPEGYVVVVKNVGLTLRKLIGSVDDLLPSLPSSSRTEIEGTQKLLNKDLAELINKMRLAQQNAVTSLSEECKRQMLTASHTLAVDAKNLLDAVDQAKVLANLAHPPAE

SMILES | IC50 [1] | IC50 [2]
COc1cc(OCCN2CCOCC2)ccc1Nc1nc2c(c(Nc3ccccc3S(=O)(=O)NC(C)C)n1)CCN2 [Example 70, N-isopropyl-2-(2-(2-methoxy-4-(2-morpholinoethoxy)phenylamino)-6,7-dihydro-5H-pyrrolo[2,3-d]pyrimidin-4-ylamino)benzenesulfonamide] | < 20 nM | < 20 nM
COc1cc(N2CCC(N(C)C)CC2)ccc1Nc1nc2c(c(Nc3ccccc3S(=O)(=O)NC(C)C)n1)CCN2 [Example 76, 2-(2-(4-(4-(dimethylamino)piperidin-1-yl)-2-methoxyphenylamino)-6,7-dihydro-5H-pyrrolo[2,3-d]pyrimidin-4-ylamino)-N-isopropylbenzenesulfonamide] | < 20 nM | < 20 nM
COc1cc(N2CCC(CO)CC2)ccc1Nc1nc2c(c(Nc3ccccc3S(=O)(=O)NC(C)C)n1)CCN2 [Example 79, 2-(2-(4-(4-(hydroxymethyl)piperidin-1-yl)-2-methoxyphenylamino)-6,7-dihydro-5H-pyrrolo[2,3-d]pyrimidin-4-ylamino)-N-isopropylbenzenesulfonamide] | < 20 nM | < 20 nM
COc1cc(N2CCC(O)C2)ccc1Nc1nc2c(c(Nc3ccccc3S(=O)(=O)NC(C)C)n1)CCN2 (stereo not shown) [Example 80, 2-(2-(4-(3-hydroxypyrrolidin-1-yl)-2-methoxyphenylamino)-6,7-dihydro-5H-pyrrolo[2,3-d]pyrimidin-4-ylamino)-N-isopropylbenzenesulfonamide] | < 100 nM | < 20 nM
COc1cc(N2CCCC(O)C2)ccc1Nc1nc2c(c(Nc3ccccc3S(=O)(=O)NC(C)C)n1)CCN2 (stereo not shown) [Example 81, 2-(2-(4-(3-hydroxypiperidin-1-yl)-2-methoxyphenylamino)-6,7-dihydro-5H-pyrrolo[2,3-d]pyrimidin-4-ylamino)-N-isopropylbenzenesulfonamide] | < 50 nM | < 20 nM
COc1cc(N2C(C)COCC2C)ccc1Nc1nc2c(c(Nc3ccccc3S(=O)(=O)NC(C)C)n1)CCN2 (stereo not shown) [Example 84, 2-(2-(4-(3,5-dimethylmorpholino)-2-methoxyphenylamino)-6,7-dihydro-5H-pyrrolo[2,3-d]pyrimidin-4-ylamino)-N-isopropylbenzenesulfonamide] | < 100 nM | < 50 nM
COc1cc(NCCN2CCOCC2)ccc1Nc1nc2c(c(Nc3ccccc3S(=O)(=O)NC(C)C)n1)CCN2 [Example 85, N-isopropyl-2-(2-(2-methoxy-4-(2-morpholinoethylamino)phenylamino)-6,7-dihydro-5H-pyrrolo[2,3-d]pyrimidin-4-ylamino)benzenesulfonamide] | < 20 nM | < 20 nM
COc1cc(N2CCC(O)CC2)ccc1Nc1nc2c(c(Nc3ccccc3S(=O)(=O)NC(C)C)n1)CCN2 [Example 86, 2-(2-(4-(4-hydroxypiperidin-1-yl)-2-methoxyphenylamino)-6,7-dihydro-5H-pyrrolo[2,3-d]pyrimidin-4-ylamino)-N-isopropylbenzenesulfonamide] | < 20 nM | < 20 nM
COc1cc(N2CCS(=O)(=O)CC2)ccc1Nc1nc2c(c(Nc3ccccc3S(=O)(=O)NC(C)C)n1)CCN2 [Example 87, 2-(2-(4-(4-(S,S-dioxothio)piperidin-1-yl)-2-methoxyphenylamino)-6,7-dihydro-5H-pyrrolo[2,3-d]pyrimidin-4-ylamino)-N-isopropylbenzenesulfonamide] | < 20 nM | < 20 nM
COc1cc(N2CCC(N(C)C)C2)ccc1Nc1nc2c(c(Nc3ccccc3S(=O)(=O)NC(C)C)n1)CCN2 (stereo not shown) [Example 89, 2-(2-(4-(3-(dimethylamino)pyrrolidin-1-yl)-2-methoxyphenylamino)-6,7-dihydro-5H-pyrrolo[2,3-d]pyrimidin-4-ylamino)-N-isopropylbenzenesulfonamide] | < 20 nM | < 20 nM
COc1cc(N2CCC(N3CCCCC3)CC2)ccc1Nc1nc2c(c(Nc3ccccc3S(=O)(=O)NC(C)C)n1)CCN2 [Example 92, 2-(2-(4-(1,4′-bipiperidin-1′-yl)-2-methoxyphenylamino)-6,7-dihydro-5H-pyrrolo[2,3-d]pyrimidin-4-ylamino)-N-isopropylbenzenesulfonamide] | < 20 nM | < 20 nM
COc1cc(N2CCC(N3CCCC3)CC2)ccc1Nc1nc2c(c(Nc3ccccc3S(=O)(=O)NC(C)C)n1)CCN2 [Example 93, N-isopropyl-2-(2-(2-methoxy-4-(4-(pyrrolidin-1-yl)piperidin-1-yl)phenylamino)-6,7-dihydro-5H-pyrrolo[2,3-d]pyrimidin-4-ylamino)benzenesulfonamide] | < 20 nM | < 20 nM
COc1cc(N2CCC(N3CCN(C)CC3)CC2)ccc1Nc1nc2c(c(Nc3ccccc3S(=O)(=O)NC(C)C)n1)CCN2 [Example 96, N-isopropyl-2-(2-(2-methoxy-4-(4-(4-methylpiperazin-1-yl)piperidin-1-yl)phenylamino)-6,7-dihydro-5H-pyrrolo[2,3-d]pyrimidin-4-ylamino)benzenesulfonamide] | < 20 nM | < 20 nM
COc1cc(N2CCC(N3CCNCC3)CC2)ccc1Nc1nc2c(c(Nc3ccccc3S(=O)(=O)NC(C)C)n1)CCN2 [Example 97, N-isopropyl-2-(2-(2-methoxy-4-(4-(piperazin-1-yl)piperidin-1-yl)phenylamino)-6,7-dihydro-5H-pyrrolo[2,3-d]pyrimidin-4-ylamino)benzenesulfonamide] | < 500 nM | < 100 nM

Second part, the molecule after the results:

IC50 [1] | IC50 [2] | SMILES
< 100 nM | < 200 nM | CC(C)NS(=O)(=O)c1ccccc1Nc1nc(Nc2ccc(OC(F)(F)F)cc2)nc2c1CCN2 [Example 71, N-isopropyl-2-(2-(4-(trifluoromethoxy)phenylamino)-6,7-dihydro-5H-pyrrolo[2,3-d]pyrimidin-4-ylamino)benzenesulfonamide]
< 20 nM | < 20 nM | CC(C)NC(C)c1ccc(Nc2nc3c(c(Nc4ccccc4S(=O)(=O)NC(C)C)n2)CCN3)cc1 (stereo not shown) [Example 72, N-isopropyl-2-(2-(4-(1-(isopropylamino)ethyl)phenylamino)-6,7-dihydro-5H-pyrrolo[2,3-d]pyrimidin-4-ylamino)benzenesulfonamide]
< 20 nM | < 20 nM | CC(C)NS(=O)(=O)c1ccccc1Nc1nc(Nc2cccc(NS(C)(=O)=O)c2)nc2c1CCN2 [Example 73, N-isopropyl-2-(2-(3-(methylsulfonamido)phenylamino)-6,7-dihydro-5H-pyrrolo[2,3-d]pyrimidin-4-ylamino)benzenesulfonamide]
< 50 nM | < 20 nM | CNC(=O)c1cccc(Nc2nc3c(c(Nc4ccccc4S(=O)(=O)NC(C)C)n2)CCN3)c1 [Example 74, 3-(4-(2-(N-isopropylsulfamoyl)phenylamino)-6,7-dihydro-5H-pyrrolo[2,3-d]pyrimidin-2-ylamino)-N-methylbenzamide]
< 20 nM | < 20 nM | CC(=O)Nc1cccc(Nc2nc3c(c(Nc4ccccc4S(=O)(=O)NC(C)C)n2)CCN3)c1 [Example 75, N-(3-(4-(2-(N-isopropylsulfamoyl)phenylamino)-6,7-dihydro-5H-pyrrolo[2,3-d]pyrimidin-2-ylamino)phenyl)acetamide]
< 500 nM | < 500 nM | COc1cc(-n2ccnc2)ccc1Nc1nc2c(c(Nc3ccccc3S(=O)(=O)NC(C)C)n1)CCN2 [Example 77, 2-(2-(4-(1H-imidazol-1-yl)-2-methoxyphenylamino)-6,7-dihydro-5H-pyrrolo[2,3-d]pyrimidin-4-ylamino)-N-isopropylbenzenesulfonamide]
< 20 nM | < 20 nM | CC(C)NS(=O)(=O)c1ccccc1Nc1nc(Nc2ccc(C(=O)N3CCCC3)cc2)nc2c1CCN2 [Example 78, N-isopropyl-2-(2-(4-(pyrrolidine-1-carbonyl)phenylamino)-6,7-dihydro-5H-pyrrolo[2,3-d]pyrimidin-4-ylamino)benzenesulfonamide]
< 20 nM | < 20 nM | COc1cc(-n2ccccc2=O)ccc1Nc1nc2c(c(Nc3ccccc3S(=O)(=O)NC(C)C)n1)CCN2 [Example 83, N-isopropyl-2-(2-(2-methoxy-4-(2-oxopyridin-1(2H)-yl)phenylamino)-6,7-dihydro-5H-pyrrolo[2,3-d]pyrimidin-4-ylamino)benzenesulfonamide]
< 200 nM | < 50 nM | COc1cc(-n2ncnn2)ccc1Nc1nc2c(c(Nc3ccccc3S(=O)(=O)NC(C)C)n1)CCN2 [Example 88, N-isopropyl-2-(2-(2-methoxy-4-(2H-tetrazol-2-yl)phenylamino)-6,7-dihydro-5H-pyrrolo[2,3-d]pyrimidin-4-ylamino)benzenesulfonamide]
< 20 nM | < 20 nM | COc1cc(-n2cc(C)nc2C)ccc1Nc1nc2c(c(Nc3ccccc3S(=O)(=O)NC(C)C)n1)CCN2 [Example 90, 2-(2-(4-(2,4-dimethyl-1H-imidazol-1-yl)-2-methoxyphenylamino)-6,7-dihydro-5H-pyrrolo[2,3-d]pyrimidin-4-ylamino)-N-isopropylbenzenesulfonamide]
< 1000 nM | > 1000 nM | Cc1csc(Nc2nc3c(c(Nc4ccccc4S(=O)(=O)NC(C)C)n2)CCN3)n1 [Example 91, N-isopropyl-2-(2-(4-methylthiazol-2-ylamino)-6,7-dihydro-5H-pyrrolo[2,3-d]pyrimidin-4-ylamino)benzenesulfonamide]
< 200 nM | < 50 nM | COc1cc(-n2cccn2)ccc1Nc1nc2c(c(Nc3ccccc3S(=O)(=O)NC(C)C)n1)CCN2 [Example 94, N-isopropyl-2-(2-(2-methoxy-4-(1H-pyrazol-1-yl)phenylamino)-6,7-dihydro-5H-pyrrolo[2,3-d]pyrimidin-4-ylamino)benzenesulfonamide]
